In patent US20220251036A1, “DIFLUOROHALOALLYLAMINE SULFONE DERIVATIVE INHIBITORS OF LYSYL OXIDASES, METHODS OF PREPARATION, AND USES THEREOF” (PHARMAXIS LTD., priority 2019, published 2022):

Columns and labels:
[1] = target: T1, Human recombinant SSAO/VAP-1 (Homo sapiens, UniProt Q16853); test: SSAO/VAP-1 inhibition; format: biochemical; conditions: 30 min incubation at 37° C, benzylamine 600 μM
T1 construct: residues 34-763 of human SSAO/VAP-1; TEV cleavage site (N); made in house
T1 sequence (Q16853 34-763): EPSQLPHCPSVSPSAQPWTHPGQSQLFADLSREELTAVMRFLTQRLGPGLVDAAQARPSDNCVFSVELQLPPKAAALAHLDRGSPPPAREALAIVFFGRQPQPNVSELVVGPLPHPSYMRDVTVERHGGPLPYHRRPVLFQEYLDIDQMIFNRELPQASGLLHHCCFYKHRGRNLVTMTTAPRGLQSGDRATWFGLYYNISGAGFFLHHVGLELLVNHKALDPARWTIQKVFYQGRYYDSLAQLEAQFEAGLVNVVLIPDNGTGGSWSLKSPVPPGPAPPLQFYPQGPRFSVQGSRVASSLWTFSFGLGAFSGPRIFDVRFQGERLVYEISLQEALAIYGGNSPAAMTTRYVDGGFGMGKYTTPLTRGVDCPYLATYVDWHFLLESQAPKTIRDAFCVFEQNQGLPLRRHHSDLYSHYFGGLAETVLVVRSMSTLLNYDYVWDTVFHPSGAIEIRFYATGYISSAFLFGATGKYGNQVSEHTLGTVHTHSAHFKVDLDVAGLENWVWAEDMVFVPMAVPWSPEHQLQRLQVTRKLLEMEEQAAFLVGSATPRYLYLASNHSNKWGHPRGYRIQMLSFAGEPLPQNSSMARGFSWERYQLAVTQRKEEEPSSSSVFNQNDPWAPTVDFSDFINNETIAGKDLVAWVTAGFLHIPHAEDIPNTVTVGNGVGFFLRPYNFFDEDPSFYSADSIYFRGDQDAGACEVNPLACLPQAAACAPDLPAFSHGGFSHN
Method: Human recombinant SSAO/VAP-1 amine oxidase activity was determined using the coupled colorimetric method as described for monoamine oxidase, copper-containing amine oxidases and related enzymes (Holt A. and Palcic M., A peroxidase-coupled continuous absorbance plate-reader assay for flavin monoamine oxidases, copper-containing amine oxidases and related enzymes. Nat Protoc 2006; 1: 2498-2505). Briefly, a cloned cDNA template corresponding to residues 34-763 of human SSAO/VAP-1, and incorporating a mouse Ig kappa (κ) signal sequence, N-terminal flag epitope tag and tobacco etch virus (TEV) cleavage site, was assembled in a mammalian expression vector (pLO-CMV) by Geneart AG. This vector containing human SSAO/VAP-1 residues was transfected into CHO-K1 glycosylation mutant cell line, Lee 8. A clone stably expressing human SSAO/VAP-1 was isolated and cultured in large scale. Active human SSAO/VAP-1 was purified and recovered using immunoaffinity chromatography. This was used as the source for SSAO/VAP-1 activity. A high-throughput fluorescent assay was developed using either 96 or 384 well format. Briefly, in a standard 96 well plate assay 50 μL of purified human SSAO/VAP-1 (0.25 μg/mL) in 0.1 M sodium phophate buffer (pH 7.4) was added into each well. Test compounds were dissolved in DMSO and tested in a Concentration Response Curve (CRC) with 4-11 data points, typically in the micromolar or nanomolar range after incubation with human SSAO/VAP-1 for 30 min at 37° C. After 30 min incubation, 50 μL of the reaction mixture containing 600 μM benzylamine (Sigma Aldrich), 120 μM Amplex Red (Sigma Aldrich) and 1.5 U/mL horseradish peroxidase (Sigma Aldrich) prepared in 0.1 M sodium phosphate buffer (pH 7.4) were added to the corresponding well. The fluorescence unit (RFU) was read every 2.5 min for 30 min at 37° C. excitation 565 nm and emission 590 (Optima; BMG labtech). The slope of the kinetics for each well was calculated using MARS data analysis software (BMG labtech) and this value was used to deduce the IC50 value (Dotmatics).

recombinant human DAO = target: T2, recombinant human DAO (Homo sapiens, UniProt P19801); test: DAO inhibition; format: biochemical; conditions: 2 hours incubation
T2 construct: Gift: Prof; Boehm, Department of Clinical Pharmacology, Medical University, Vienna
T2 sequence (P19801 20-751): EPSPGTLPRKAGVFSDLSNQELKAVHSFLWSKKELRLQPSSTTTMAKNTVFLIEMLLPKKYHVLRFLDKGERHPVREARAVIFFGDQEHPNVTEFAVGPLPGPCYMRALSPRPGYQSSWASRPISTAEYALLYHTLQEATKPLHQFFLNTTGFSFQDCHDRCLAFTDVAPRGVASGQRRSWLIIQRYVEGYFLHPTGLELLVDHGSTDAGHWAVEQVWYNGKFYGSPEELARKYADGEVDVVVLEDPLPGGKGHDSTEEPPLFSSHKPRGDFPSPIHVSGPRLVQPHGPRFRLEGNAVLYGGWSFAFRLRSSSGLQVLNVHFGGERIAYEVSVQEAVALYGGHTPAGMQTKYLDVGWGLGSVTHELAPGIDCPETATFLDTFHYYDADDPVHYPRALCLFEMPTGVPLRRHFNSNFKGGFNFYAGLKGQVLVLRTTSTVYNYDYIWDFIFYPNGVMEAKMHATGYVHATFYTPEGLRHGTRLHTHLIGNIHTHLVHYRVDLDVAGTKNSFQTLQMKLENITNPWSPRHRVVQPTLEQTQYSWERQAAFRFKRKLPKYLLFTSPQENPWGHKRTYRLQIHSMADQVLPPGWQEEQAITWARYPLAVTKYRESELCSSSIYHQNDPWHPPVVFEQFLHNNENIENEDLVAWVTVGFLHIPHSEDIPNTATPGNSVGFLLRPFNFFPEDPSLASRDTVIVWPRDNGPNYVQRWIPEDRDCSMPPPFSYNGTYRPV
Method: The specificity of the compounds of this invention was tested by determining their ability to inhibit DAO activity in vitro, using recombinant human DAO (100 ng/mL; kindly provided by Prof. Boehm, Department of Clinical Pharmacology, Medical University, Vienna). The assay was performed in a similar way as for human SSAO/VAP-1 (Example 8) except, the incubation with the test compounds was extended to 2 hours, and the substrate […] was used at 100 μM in place of benzylamine.

scars = test: Excision injury model in pigs; format: in vivo; conditions: daily for 12 weeks
Method: Eight full thickness excisions (5×2 cm^2) were made on 5 female juvenile pigs (each weighing 18-20 kg) for a total of 40 injury sites. The entire epidermis and dermal layers of skin were removed by a plastic surgeon in one operation under anaesthesia leaving excisions approximately 5-8 mm in depth. Wounds were dressed and anti-anxiety jackets (Thundershirt; RSPCA) provided to cover wounds. Analgesia was given—buprenorphine injection and fentanyl patch (50 μg/hr) for 10 days, post-surgery—and animals were allowed to recover. The dressings were changed at regular intervals to protect the wounds and prevent infection. Daily treatment started 14 days post-surgery and continued for 12 weeks. […] The surgeons ranked scars in each set of 4 from best to worst (0-3) and the scores for each scar were added and analysed.

Row | IC50 [1] [µM] | SMILES | other results
1 | > 30 | Cc1ccccc1S(=O)(=O)C(F)(F)/C(F)=C/CN [Compound 5, (Z)-3,4,4-trifluoro-4-(o-tolylsulfonyl)but-2-en-1-amine] | 
2 | > 30 | Cc1ccc(S(=O)(=O)C(F)(F)/C(F)=C/CN)cc1 [Compound 6, (Z)-3,4,4-trifluoro-4-tosylbut-2-en-1-amine] | 
3 | 14.7 | CS(=O)(=O)c1ccc(COc2ccccc2S(=O)(=O)C(F)(F)/C(F)=C/CN)cc1 [Compound 10, (Z)-3,4,4-trifluoro-4-((2-((4-(methylsulfonyl)benzyl)oxy)phenyl)sulfonyl) but-2-en-1-amine] | 

Second part, the compound before the results:

Row | SMILES | IC50 [1] [µM] | other results
4 | N#CCCN [BAPN, β-aminopropionitrile, reference compound] | > 30 | IC50 (recombinant human DAO): > 30 µM
5 | NC/C=C(\F)C(F)(F)S(=O)(=O)c1ccccc1 [Compound 1, (Z)-3,4,4-trifluoro-4-(phenylsulfonyl)but-2-en-1-amine] |  | scar appearance (scars; pigs, 0, 0.5, 1.5 and 3% oil in water cream): substantial, dose-dependent improvement; scar visible versus control scars (scars; pigs, 3% oil in water cream): significantly less scar visible
6 | CNc1ccccc1S(=O)(=O)C(F)(F)/C(F)=C/CN [Compound 4, (Z)-2-((4-amino-1,1,2-trifluorobut-2-en-yl)sulfony1)-N-methylaniline] | 18 | IC50 (recombinant human DAO): > 30 µM
7 | NC/C=C(\F)C(F)(F)S(=O)(=O)Cc1ccccc1 [Compound 8, (Z)-4-(benzylsulfony1)-3,4,4-trifluorobut-2-en-1-amine] | > 30 | 
8 | NC/C=C(\F)C(F)(F)S(=O)(=O)c1cccs1 [Compound 14, (Z)-3,4,4-trifluoro-4-(thiophen-2-ylsulfonyl)but-2-en-1-amine] | 26.6 | 
